# In patent US4812465A, “Triazole derivatives for use as antimycotic agents” (CL Pharma Aktiengesellschaft, priority 1986, dated 1989):
# Test system: Mucor mucedo minus
# Assay: In vitro determination of minimum inhibitory concentration (MIC), serial dilution
# Assay type: cell-based
# Settings: Mucor mucedo, 336 h, pH 6, Mucor mucedo minus; pH 6.0, 22° C., 14 days
# Protocol: (§1) The antimycotic activities of the compounds were measured by in vitro determination of the minimum inhibitory concentration (MIC) for yeasts, molds and dermatophytes.
# (§2) 6 dermatophytes, 2 yeasts and 4 molds were used for testing with fungi, as follows:
# (§3) The minimum inhibitory concentration (MIC) was determined in serial dilution tests in test tubes. The volume of the liquid nutrient medium in each test tube was 4.5 ml.
# (§4) The substances were dissolved in DMSO and diluted with sterile distilled water to 10 concentrations (100, 50, 25, 12.5, 6.25, 3.12, 1.56, 0.78, 0.39 and 0.19 μg/ml). 0.5 ml of each of these dilution steps was added to liquid nutrient medium. Thus, a constant concentration of solvent in all the nutrient media was ensured, irrespective of the active compound concentration.
# (§5) A comparison solution which contained only the solvent in appropriate concentration was included when carrying out each of the tests.
# (§6) The individual strains were maintained on Sabouraud/beerwort agar slants and, before they were used in a test, they underwent a passage on a modified Sabouraud liquid nutrient medium. The strains were then harvested, washed and converted into a suspension of McFaerland 3 in the case of yeasts and molds and of McFaerland 4-5 in the case of dermatophytes.
# (§7) The amount of material inoculated (inoculum) was 100 μl/test tube (inoculated densities: yeasts about 10^3 /ml, molds about 10^4 /ml, dermatophytes about 10^4 /ml). The pH of the liquid nutrient medium was 6.0. After inoculation had taken place the fungi were incubated at 22° C. for 14 days.
# (§8) The MIC was then determined. The concentration step at which growth was no longer visible on macroscopic inspection was used for the determination of the MIC. The comparison substance used was 1-(2-(2,4-dichlorophenyl)-2-(2,4-dichlorophenylmethoxy)ethyl)-1H-imidazole(compound A).
row,Compound,MIC [µg/mL]
1,Clc1ccc(C(Cn2cncn2)NCCCSc2ccc(Br)cc2)c(Cl)c1 (stereo not drawn) [Compound 104],50
2,Clc1ccc(C(Cn2ccnc2)NCCCSc2c(Cl)cccc2Cl)c(Cl)c1 (stereo not drawn) [Compound 112],12.5
3,Clc1ccc(C(Cn2ccnc2)NCCCSc2ccc3ccccc3c2)c(Cl)c1 (stereo not drawn) [Compound 114],3.12
4,Clc1ccc(OCCCCNC(Cn2cncn2)c2ccc(Cl)cc2Cl)cc1 (stereo not drawn) [Compound 126],25
5,Clc1ccc(SCCCCCNC(Cn2ccnc2)c2ccc(Cl)cc2Cl)cc1 (stereo not drawn) [Compound 132],3.12
6,Clc1ccc(SCCCNC(Cn2ccnc2)c2cccc3ccccc23)cc1 (stereo not drawn) [Compound 139],3.12

# Test system: Absidia ramosa
# Assay: as above
# Assay type: cell-based
# Settings: Lichtheimia ramosa, 336 h, pH 6, Absidia ramosa; pH 6.0, 22° C., 14 days
# Protocol: as §1, §2, §3, §4, §5, §6, §7, §8
row,Compound,MIC [µg/mL]
1,Clc1ccc(C(Cn2cncn2)NCCCSc2ccc(Br)cc2)c(Cl)c1 (stereo not drawn) [Compound 104],100
2,Clc1ccc(C(Cn2ccnc2)NCCCSc2c(Cl)cccc2Cl)c(Cl)c1 (stereo not drawn) [Compound 112],12.5
3,Clc1ccc(C(Cn2ccnc2)NCCCSc2ccc3ccccc3c2)c(Cl)c1 (stereo not drawn) [Compound 114],6.25
4,Clc1ccc(OCCCCNC(Cn2cncn2)c2ccc(Cl)cc2Cl)cc1 (stereo not drawn) [Compound 126],100
5,Clc1ccc(SCCCCCNC(Cn2ccnc2)c2ccc(Cl)cc2Cl)cc1 (stereo not drawn) [Compound 132],6.25
6,Clc1ccc(SCCCNC(Cn2ccnc2)c2cccc3ccccc23)cc1 (stereo not drawn) [Compound 139],3.12

# Test system: Candida tropicalis
# Assay: as above
# Assay type: cell-based
# Settings: 336 h, pH 6, Candida tropicalis, pH 6.0, 22° C., 14 days, read-out: MIC C.trop
# Protocol: as §1, §2, §3, §4, §5, §6, §7, §8
row,Compound,MIC [µg/mL]
1,Clc1ccc(C(Cn2cncn2)NCCCSc2ccc(Br)cc2)c(Cl)c1 (stereo not drawn) [Compound 104],12.5
2,Clc1ccc(C(Cn2ccnc2)NCCCSc2c(Cl)cccc2Cl)c(Cl)c1 (stereo not drawn) [Compound 112],6.25
3,Clc1ccc(C(Cn2ccnc2)NCCCSc2ccc3ccccc3c2)c(Cl)c1 (stereo not drawn) [Compound 114],6.25
4,Clc1ccc(OCCCCNC(Cn2cncn2)c2ccc(Cl)cc2Cl)cc1 (stereo not drawn) [Compound 126],12.5
5,Clc1ccc(SCCCCCNC(Cn2ccnc2)c2ccc(Cl)cc2Cl)cc1 (stereo not drawn) [Compound 132],3.12
6,Clc1ccc(SCCCNC(Cn2ccnc2)c2cccc3ccccc23)cc1 (stereo not drawn) [Compound 139],12.5

# Test system: Microsporum gypseum
# Assay: as above
# Assay type: cell-based
# Settings: Nannizzia gypsea, 336 h, pH 6, Microsporum gypseum; pH 6.0, 22° C., 14 days; read-out: MIC Mi.gyp
# Protocol: as §1, §2, §3, §4, §5, §6, §7, §8
row,Compound,MIC [µg/mL]
1,Clc1ccc(C(Cn2cncn2)NCCCSc2ccc(Br)cc2)c(Cl)c1 (stereo not drawn) [Compound 104],6.25
2,Clc1ccc(C(Cn2ccnc2)NCCCSc2c(Cl)cccc2Cl)c(Cl)c1 (stereo not drawn) [Compound 112],3.12
3,Clc1ccc(C(Cn2ccnc2)NCCCSc2ccc3ccccc3c2)c(Cl)c1 (stereo not drawn) [Compound 114],3.12
4,Clc1ccc(OCCCCNC(Cn2cncn2)c2ccc(Cl)cc2Cl)cc1 (stereo not drawn) [Compound 126],3.12
5,Clc1ccc(SCCCCCNC(Cn2ccnc2)c2ccc(Cl)cc2Cl)cc1 (stereo not drawn) [Compound 132],3.12
6,Clc1ccc(SCCCNC(Cn2ccnc2)c2cccc3ccccc23)cc1 (stereo not drawn) [Compound 139],1.56

# Test system: Epidermophyton floccosum
# Assay: as above
# Assay type: cell-based
# Settings: 336 h, pH 6, Epidermophyton floccosum, pH 6.0, 22° C., 14 days
# Protocol: as §1, §2, §3, §4, §5, §6, §7, §8
row,Compound,MIC [µg/mL]
1,Clc1ccc(C(Cn2cncn2)NCCCSc2ccc(Br)cc2)c(Cl)c1 (stereo not drawn) [Compound 104],12.5
2,Clc1ccc(C(Cn2ccnc2)NCCCSc2c(Cl)cccc2Cl)c(Cl)c1 (stereo not drawn) [Compound 112],3.12
3,Clc1ccc(C(Cn2ccnc2)NCCCSc2ccc3ccccc3c2)c(Cl)c1 (stereo not drawn) [Compound 114],3.12
4,Clc1ccc(OCCCCNC(Cn2cncn2)c2ccc(Cl)cc2Cl)cc1 (stereo not drawn) [Compound 126],12.5
5,Clc1ccc(SCCCCCNC(Cn2ccnc2)c2ccc(Cl)cc2Cl)cc1 (stereo not drawn) [Compound 132],0.78
6,Clc1ccc(SCCCNC(Cn2ccnc2)c2cccc3ccccc23)cc1 (stereo not drawn) [Compound 139],3.12

# Test system: Aspergillus fumigatus
# Assay: as above
# Assay type: cell-based
# Settings: 20160 min, pH 6
# Protocol: as §1, §2, §3, §4, §5, §6, §7, §8
row,Compound,MIC Asp.fu.
1,Clc1ccc(C(Cn2cncn2)NCCCSc2ccc(Br)cc2)c(Cl)c1 (stereo not drawn) [Compound 104],100 µg/mL
2,Clc1ccc(C(Cn2ccnc2)NCCCSc2c(Cl)cccc2Cl)c(Cl)c1 (stereo not drawn) [Compound 112],"12,5 μg/ml"
3,Clc1ccc(C(Cn2ccnc2)NCCCSc2ccc3ccccc3c2)c(Cl)c1 (stereo not drawn) [Compound 114],"0,78 μg/ml"
4,Clc1ccc(OCCCCNC(Cn2cncn2)c2ccc(Cl)cc2Cl)cc1 (stereo not drawn) [Compound 126],"25,0 μg/ml"
5,Clc1ccc(SCCCCCNC(Cn2ccnc2)c2ccc(Cl)cc2Cl)cc1 (stereo not drawn) [Compound 132],"6,25 μg/ml"
6,Clc1ccc(SCCCNC(Cn2ccnc2)c2cccc3ccccc23)cc1 (stereo not drawn) [Compound 139],"3,12 μg/ml"

# Test system: Mucor mucedo plus
# Assay: as above
# Assay type: cell-based
# Settings: Mucor mucedo, 336 h, pH 6, Mucor mucedo plus; pH 6.0, 22° C., 14 days
# Protocol: as §1, §2, §3, §4, §5, §6, §7, §8
row,Compound,MIC [µg/mL]
1,Clc1ccc(C(Cn2cncn2)NCCCSc2ccc(Br)cc2)c(Cl)c1 (stereo not drawn) [Compound 104],12.5
2,Clc1ccc(C(Cn2ccnc2)NCCCSc2c(Cl)cccc2Cl)c(Cl)c1 (stereo not drawn) [Compound 112],6.25
3,Clc1ccc(C(Cn2ccnc2)NCCCSc2ccc3ccccc3c2)c(Cl)c1 (stereo not drawn) [Compound 114],6.25
4,Clc1ccc(OCCCCNC(Cn2cncn2)c2ccc(Cl)cc2Cl)cc1 (stereo not drawn) [Compound 126],12.5
5,Clc1ccc(SCCCCCNC(Cn2ccnc2)c2ccc(Cl)cc2Cl)cc1 (stereo not drawn) [Compound 132],0.78
6,Clc1ccc(SCCCNC(Cn2ccnc2)c2cccc3ccccc23)cc1 (stereo not drawn) [Compound 139],3.12

# Test system: Trichophyton rubrum
# Assay: as above
# Assay type: cell-based
# Settings: 336 h, pH 6, Trichophyton rubrum, pH 6.0, 22° C., 14 days
# Protocol: as §1, §2, §3, §4, §5, §6, §7, §8
row,Compound,MIC [µg/mL]
1,Clc1ccc(C(Cn2cncn2)NCCCSc2ccc(Br)cc2)c(Cl)c1 (stereo not drawn) [Compound 104],6.25
2,Clc1ccc(C(Cn2ccnc2)NCCCSc2c(Cl)cccc2Cl)c(Cl)c1 (stereo not drawn) [Compound 112],3.12
3,Clc1ccc(C(Cn2ccnc2)NCCCSc2ccc3ccccc3c2)c(Cl)c1 (stereo not drawn) [Compound 114],1.56
4,Clc1ccc(OCCCCNC(Cn2cncn2)c2ccc(Cl)cc2Cl)cc1 (stereo not drawn) [Compound 126],6.25
5,Clc1ccc(SCCCCCNC(Cn2ccnc2)c2ccc(Cl)cc2Cl)cc1 (stereo not drawn) [Compound 132],3.12
6,Clc1ccc(SCCCNC(Cn2ccnc2)c2cccc3ccccc23)cc1 (stereo not drawn) [Compound 139],1.56

# Test system: Candida albicans
# Assay: as above
# Assay type: cell-based
# Settings: 336 h, pH 6, Candida albicans, pH 6.0, 22° C., 14 days, read-out: MIC C.alb
# Protocol: as §1, §2, §3, §4, §5, §6, §7, §8
row,Compound,MIC [µg/mL]
1,Clc1ccc(C(Cn2cncn2)NCCCSc2ccc(Br)cc2)c(Cl)c1 (stereo not drawn) [Compound 104],25
2,Clc1ccc(C(Cn2ccnc2)NCCCSc2c(Cl)cccc2Cl)c(Cl)c1 (stereo not drawn) [Compound 112],6.25
3,Clc1ccc(C(Cn2ccnc2)NCCCSc2ccc3ccccc3c2)c(Cl)c1 (stereo not drawn) [Compound 114],3.12
4,Clc1ccc(OCCCCNC(Cn2cncn2)c2ccc(Cl)cc2Cl)cc1 (stereo not drawn) [Compound 126],25
5,Clc1ccc(SCCCCCNC(Cn2ccnc2)c2ccc(Cl)cc2Cl)cc1 (stereo not drawn) [Compound 132],6.25
6,Clc1ccc(SCCCNC(Cn2ccnc2)c2cccc3ccccc23)cc1 (stereo not drawn) [Compound 139],3.12

# Test system: Microsporum canis
# Assay: as above
# Assay type: cell-based
# Settings: 336 h, pH 6, Microsporum canis, pH 6.0, 22° C., 14 days
# Protocol: as §1, §2, §3, §4, §5, §6, §7, §8
row,Compound,MIC [µg/mL]
1,Clc1ccc(C(Cn2cncn2)NCCCSc2ccc(Br)cc2)c(Cl)c1 (stereo not drawn) [Compound 104],100
2,Clc1ccc(C(Cn2ccnc2)NCCCSc2c(Cl)cccc2Cl)c(Cl)c1 (stereo not drawn) [Compound 112],12.5
3,Clc1ccc(C(Cn2ccnc2)NCCCSc2ccc3ccccc3c2)c(Cl)c1 (stereo not drawn) [Compound 114],0.78
4,Clc1ccc(OCCCCNC(Cn2cncn2)c2ccc(Cl)cc2Cl)cc1 (stereo not drawn) [Compound 126],25
5,Clc1ccc(SCCCCCNC(Cn2ccnc2)c2ccc(Cl)cc2Cl)cc1 (stereo not drawn) [Compound 132],12.5
6,Clc1ccc(SCCCNC(Cn2ccnc2)c2cccc3ccccc23)cc1 (stereo not drawn) [Compound 139],1.56

# Test system: Trichophyton mentagrophytes
# Assay: as above
# Assay type: cell-based
# Settings: 336 h, pH 6, Trichophyton mentagrophytes, pH 6.0, 22° C., 14 days
# Protocol: as §1, §2, §3, §4, §5, §6, §7, §8
row,Compound,MIC [µg/mL]
1,Clc1ccc(C(Cn2cncn2)NCCCSc2ccc(Br)cc2)c(Cl)c1 (stereo not drawn) [Compound 104],25
2,Clc1ccc(C(Cn2ccnc2)NCCCSc2c(Cl)cccc2Cl)c(Cl)c1 (stereo not drawn) [Compound 112],3.12
3,Clc1ccc(C(Cn2ccnc2)NCCCSc2ccc3ccccc3c2)c(Cl)c1 (stereo not drawn) [Compound 114],3.12
4,Clc1ccc(OCCCCNC(Cn2cncn2)c2ccc(Cl)cc2Cl)cc1 (stereo not drawn) [Compound 126],50
5,Clc1ccc(SCCCCCNC(Cn2ccnc2)c2ccc(Cl)cc2Cl)cc1 (stereo not drawn) [Compound 132],0.78
6,Clc1ccc(SCCCNC(Cn2ccnc2)c2cccc3ccccc23)cc1 (stereo not drawn) [Compound 139],3.12

# Test system: Trichophyton verrucosum
# Assay: as above
# Assay type: cell-based
# Settings: 336 h, pH 6, Trichophyton verrucosum, pH 6.0, 22° C., 14 days
# Protocol: as §1, §2, §3, §4, §5, §6, §7, §8
row,Compound,MIC [µg/mL]
1,Clc1ccc(C(Cn2cncn2)NCCCSc2ccc(Br)cc2)c(Cl)c1 (stereo not drawn) [Compound 104],12.5
2,Clc1ccc(C(Cn2ccnc2)NCCCSc2c(Cl)cccc2Cl)c(Cl)c1 (stereo not drawn) [Compound 112],3.12
3,Clc1ccc(C(Cn2ccnc2)NCCCSc2ccc3ccccc3c2)c(Cl)c1 (stereo not drawn) [Compound 114],1.56
4,Clc1ccc(OCCCCNC(Cn2cncn2)c2ccc(Cl)cc2Cl)cc1 (stereo not drawn) [Compound 126],3.12
5,Clc1ccc(SCCCCCNC(Cn2ccnc2)c2ccc(Cl)cc2Cl)cc1 (stereo not drawn) [Compound 132],6.25
6,Clc1ccc(SCCCNC(Cn2ccnc2)c2cccc3ccccc23)cc1 (stereo not drawn) [Compound 139],1.56
